Reference: publication PMC10057994, “Click Triazole as a Linker for Pretargeting Strategies: Synthesis, Docking Investigations, Fluorescence Diagnosis, and Antibacterial Action Studies” (Molecules, 2023)
pIC50: −log10 of the molar value.

Columns and labels:
[1] = test system: Agrobacterium tumefaciens; assay: Antibacterial activity, LB plate microdilution test; format: cell-based; conditions: for antibacterial activity: cultured for 8 h
Description: The compounds A1–A3 were evaluated through the plate microdilution test according to the guidelines of the Clinical and Laboratory Standards Institute (CLSI). A colony of Agrobacterium tumefaciens grown on lysogeny broth (LB) agar plates was inoculated in lysogeny broth (LB) and incubated in an aerobic environment at 28 °C overnight (ON). The bacterial suspension was diluted to 5 × 10^7 CFU/mL, and 200 µL was added to each well, obtaining a final density of […]. Meanwhile, A1–A3 were serially diluted in 1X PBS at concentrations of 30, 50, and 100 µmol/L. Cefuroxime was used as an antibiotic control and DMSO as a solvent control. Subsequently, the plates were incubated at 28 °C in aerobiosis, and the growth rate was evaluated after 4, 6, 8, and 10 h using an ultraviolet (UV) detector.

[2] = UV-Vis absorption spectroscopy; format: physicochemical; conditions: in methanol
Description: (§1) The ^1H NMR and ^13C NMR spectra were recorded at 25 °C in a Nuclear Magnetic Resonance Spectrophotometer (DRX-400, Bruker, Bremerhaven, Germany) at 400 MHz for ^1H NMR in DMSO-d6 and 100 MHz for ^13C NMR in CDCl3. Thin layer chromatography (TLC) was carried out on silica gel (GF254, Qingdao Haiyang Chemical Co., Ltd., Qingdao, China), and the spots were visualized with UV light at 254 nm. Fluorescence spectra were recorded on a fluorescence spectrophotometer (F-2710, Hitachi, Tokyo, Japan). UV-Vis spectrophotometer (UH5300, Hitachi, Tokyo, Japan) was used for the absorption measurements and the spectra were typically measured in the range of 190–1100 nm.
The sample of the compounds (A1–A3) was diluted to 1 × 10^−5 mg/mL. After thorough mixing, the target molecules were detected using a UV spectrophotometer at UV absorption wavelengths. The volume of the sample needed to be greater than 2/3 of the cuvette volume. All experiments were performed in triplicate.

[3] = test system: RAW264.7 cell; assay: MTT cell proliferation (cytotoxicity) assay; format: cell-based; conditions: for pIC50: MTT, 36 h treatment
Description: The “click” reaction conditions in click chemistry require copper sulfate and sodium ascorbate as catalysts, and the copper sulfate concentration is generally too high, which causes certain damage to the body. RAW264.7 cells were used as test cells to explore the safe concentration of copper sulfate, compounds A1–A3, and probes T1–T4. The macrophage suspension of RAW264.7 cells in the logarithmic growth stage was adjusted to 5 × 10^4 cells/mL and seeded in 96-well plates with 100 µL in each well. The cells were incubated at 37 °C and 5% CO2 for 24 h and then treated with different concentrations of copper sulfate solution (each concentration was repeated three times). After being treated with copper sulfate for 36 h, 10 µL MTT (5 mg/mL) was added to each well, and the cells were incubated at 37 °C and 5% CO2 for 4 h. Then, the MTT in the well was discarded, and 100 µL DMSO was added to each well and incubated at 37 °C for 0.5 h until the crystals were completely dissolved. The microplate reader read the OD490 nm of each well. The cytotoxicity assays of compounds A1–A3 and probes T1–T4 were the same as above. The cell proliferation inhibition rate (IC50) was calculated using SPSS 16.0 software.

[4] = Fluorescence excitation and emission spectra; format: physicochemical
Description: as §1
The sample of probes (T1–T4) was diluted to 1 × 10^−5 mg/mL for fluorescence, excitation, and emission spectra measurement by a fluorescence spectrophotometer. All experiments were performed in triplicate.

[5] = test system: Agrobacterium tumefaciens; assay: Fluorescence detection of Agrobacterium tumefaciens by diagnostic molecules (click in situ, fluorescence microscope); format: cell-based; conditions: inhibitor 8 h (A1 30, A2 50, A3 50 µmol/L), then same amount of probe, copper sulfate and sodium ascorbate, click 1 h; probe-only controls
Description: An amount of 3 mL of the standby Agrobacterium solution at a concentration of 5 × 10^3 CFU/mL was added to the shaker tube. Then, 200 µL of A1 at a concentration of 30 µmol/L, A2 at a concentration of 50 µmol/L, and A3 at a concentration of 50 µmol/L were added at 28 °C. After incubation at 200 RPM/min for 8 h, the upper layer of the medium was poured off after centrifugation and washed three times with PBS, and the bacterial solution was resuspended by adding 1 mL of medium. Then, the same amount of probe was added, and 15 µL copper sulfate and sodium ascorbate were added at a concentration of 10 µmol/L. The control group was treated with only the corresponding probe, and the concentration of each probe was the same as that of the corresponding inhibitor. After adding probes to each group, the “click” reaction was complete for 1 h. After centrifugation, the upper layer of the medium was poured off and washed three times with PBS. Then, 1 mL of the medium was added to resuspend the bacterial solution, and 10 µL was added to the slide for fluorescence microscope detection and observation of the fluorescence of Agrobacterium in each group.

Molecule	absorption maxima (λmax) [2] [nm]	pIC50 ([3]; Mus musculus)	best emission wavelength [4] [nm]	best excitation wavelength [4] [nm]	also measured
C#CCOc1ccc(O)c(C(=O)N/N=C/c2ccc(-c3ccccc3[N+](=O)[O-])o2)c1 [A1, (E)-2-hydroxy-N’-((5-(2-nitrophenyl)furan-2-yl)methylene)-5-(prop-2-ynyloxy)benzohydrazide]	352	< 4.01			antibacterial activity ([1]; 30 µmol/L): 35%
C#CCNc1cccc(C(=O)N/N=C/c2ccc(-c3ccccc3[N+](=O)[O-])o2)c1 [A2, (E)-N’-((5-(2-nitrophenyl)furan-2-yl)methylene)-3-(prop-2-ynylamino)benzohydrazide]	332	< 4.02			antibacterial activity ([1]; 50 µmol/L): 45%; antibacterial activity (in words) ([1]; Agrobacterium tumefaciens, 30-100 µmol/L, 4-10 h): better antibacterial activity than A1 and A3
[N-]=[N+]=NCCOc1ccc(O)c(C(=O)N/N=C/c2ccc(-c3ccccc3[N+](=O)[O-])o2)c1 [A3, (E)-5-(2-azidoethoxy)-2-hydroxy-N’-((5-(2-nitrophenyl)furan-2-yl)methylene)benzohydrazide]	346	< 4.00			antibacterial activity ([1]; 50 µmol/L): 35%
[N-]=[N+]=NCCOc1ccc(/C=N/c2ccccc2OCc2ccccc2[N+](=O)[O-])c(O)c1 [T1, (E)-2-((2-(2-nitrobenzyloxy)phenylimino)methyl)-5-(2-azidoethoxy)phenol]		< 4.00	310	273	
C#CCOc1ccc(/C=N/c2ccccc2O)c(O)c1 [T2, (E)-2-((2-hydroxyphenylimino)methyl)-5-(prop-2-ynyloxy)phenol]		< 4.04	315	273	
C#CCOc1ccc(-c2nc3ccccc3s2)c(O)c1 [T3, 2-(benzo[d]thiazol-2-yl)-5-(prop-2-ynyloxy)phenol]		< 4.00	377	327	melting point: 179 to 180 °C; fluorescence of Agrobacterium tumefaciens [5]: did not emit fluorescence
O=S(=O)([O-])[O-].[Cu+2] [copper sulfate]					cell survival rate ([3]; copper sulfate concentration 12 µmol/L): 80%
(E)-5-(3-azidopropoxy)-2-((2-hydroxyphenylimino)methyl)phenol [T4]			313	272	pIC50 [3]: < 4.06; fluorescence of Agrobacterium tumefaciens [5]: did not emit fluorescence
